# Laboratory results published in US20240285513A1, “TOPICAL COMPOSITION AGAINST FINE LINES AND WRINKLES” (priority 2021, published 2024).
# “And” between values parts separate entries of the source, which are not always exact repeats. Equal values may be shown once. Marks after values point to notes of the source that are not given here.
# Assays:
# Conditions in all cases: human
# [1] = system: muscle contraction in the glabella region; test: In vivo clinical study (Example 6): electromyography (EMG) muscle response
# [2] = system: fine lines and wrinkles, glabella area; test: In vivo clinical study (Example 6): clinical grading of fine lines and wrinkles
# [3] = system: muscle contraction in the glabella region; test: Comparative in vivo clinical study (Example 7): EMG muscle response with or without micro-roller
# Description: (§1) The purpose of the comparative in vivo clinical study was to evaluate the efficacy of a combination of the three extracts for muscle relaxation and wrinkle reduction over four weeks of twice-daily application on Experimental Group 1 participants using a micro-roller (n=33) versus application on Experimental Group 2 participants without using a micro-roller (n=30). The combination of the three extracts was placed in a dermatologically acceptable vehicle as the test product. The dermatologically acceptable vehicle was designed to test the efficacy of the combination of the three extracts when applied with a micro-roller versus application without a micro-roller. Study participants in Experimental Group 1 used a 1.0 mm microroller. Study participants applied the composition containing the three extracts between their eyebrows in the morning and the evening after cleansing their face with a personal cleanser. For Experimental Group 1, study participants used the micro-roller 3 times per week in the evenings by rolling the micro-roller back and forth 4 to 5 times between eyebrows changing directions with each pass. […] The amounts of each extract used in the dermatologically acceptable vehicle was Rosmarinus officinalis leaf extract at 1 wt. %, Lavendula stoechas extract at 2 wt. %, and Acmella oleracea extract at 2 wt. %. […]
# [4] = system: fine lines and wrinkles, glabella area; test: Comparative in vivo clinical study (Example 7): clinical grading of fine lines and wrinkles
# Description: as §1
substance,measurement,setting,value
onabotulinumtoxinA [BoTox],% EMG Response (AUC),[1],58%* and 40%*
same,% Clinical Improvement of Wrinkles,[2],31%* and 35%*
same,% EMG Response (AUC),[3],58%* and 40%*
same,% Clinical Improvement of Wrinkles,[4],31%* and 35%*
